Measured values taken from the OligoGym collection.
Several values for one entry are separate records, joined by “and”; a condition that tells them apart may be missing. Identical values can stand only once. After the bases stand the sugars from the 5' end (letter, count) and the backbone: PS all phosphorothioate, else s phosphorothioate and o phosphodiester by linkage. Methylation of C is not given here. e = 2'-O-(2-methoxyethyl) (MOE); k = constrained ethyl (cEt); d = 2'-deoxy (DNA)

Biological target: IRF4
Settings: ASO

Row | Sequence | target mRNA inhibition (MM.1R, 1 µM) | target mRNA inhibition (SK-MEL-28, 4 µM) | further results
1 | AGCATTTTATCATCCG (sugars kdddddddddkekeke, PS) | 24% |  | 
2 | AGCATTTTATCATCCG (sugars kkddddddddddkeke, PS) | 33% |  | 
3 | AGCATTTTATCATCCG (sugars kkdddddddddkdkdk, PS) | 11% |  | 
4 | AGCATTTTATCATCCG (sugars kkdddddddddkekek, PS) | 39% |  | 
5 | AGCCAGAGGTTCGCTG (sugars k3 d10 k3, PS) |  | 25% | 
6 | AGCCAGTGCCAGTTCC (sugars k3 d10 k3, PS) |  | 39% | 
7 | AGCCGCTACAGCTTCT (sugars k3 d10 k3, PS) |  | -8% | 
8 | AGCCTTCCTGCTCAGA (sugars k3 d10 k3, PS) |  | 55% | 
9 | AGCGAAGGGTAAGGCG (sugars k3 d10 k3, PS) |  | 14% | 
10 | AGCTAACTGGCCTCAA (sugars k3 d10 k3, PS) |  | 23% | 
11 | AGCTACGCAATCTTCT (sugars k3 d10 k3, PS) |  | 47% | 
12 | AGCTCATCTGCCAATC (sugars k3 d10 k3, PS) |  | 33% | 
13 | AGCTCCACTGTTAAAG (sugars k3 d10 k3, PS) |  | 44% | 
14 | AGCTCCTACATACATT (sugars k3 d10 k3, PS) |  | 44% | 
15 | AGCTCTAGACAGAGGC (sugars k3 d10 k3, PS) |  | 35% | 
16 | AGCTGACCATGTTACA (sugars k3 d10 k3, PS) |  | -19% | 
17 | AGCTGATGGAGAAACG (sugars k3 d10 k3, PS) |  | 10% | 
18 | AGCTGGTAGGTCAAAC (sugars k3 d10 k3, PS) |  | -5% | 
19 | AGCTTCTTTGAAGTGC (sugars k3 d10 k3, PS) |  | 62% | 
20 | AGCTTGATAAAGGCTG (sugars k3 d9 k3 e1, PS) | 2% |  | 
21 | AGGAAACTTGGAGCGC (sugars k3 d10 k3, PS) | 15% | 77% | target mRNA inhibition (MM.1R, 0.0625 µM): -1%; target mRNA inhibition (MM.1R, 0.25 µM): 2%; target mRNA inhibition (MM.1R, 4 µM): 42%
22 | AGGAACGAAGAGCAGG (sugars k3 d10 k3, PS) |  | 43% | 
23 | AGGAACTGACCTAACT (sugars k3 d10 k3, PS) |  | 31% | 
24 | AGGACAATGGAGATAC (sugars k3 d10 k3, PS) |  | 72% | 

Row | Sequence | target mRNA inhibition (MM.1R, 1 µM) | target mRNA inhibition (SK-MEL-28, 4 µM) | further results
25 | AGGACACTCACAGGCG (sugars k3 d10 k3, PS) | 8% |  | 
26 | AGGCACATCAATGTTT (sugars kdddddddddkekeke, PS) | -9% and 3% |  | 
27 | AGGCACCGCACTCCGG (sugars k3 d10 k3, PS) | -13% |  | 
28 | AGGCACTTACTAGGTG (sugars k3 d10 k3, PS) |  | 54% | 
29 | AGGCAGTTGTGCCGTC (sugars k3 d10 k3, PS) |  | -62% | 
30 | AGGCTCGGGCAGAGCC (sugars k3 d10 k3, PS) |  | 1% | 
31 | AGGGACCGCGCCAGGC (sugars k3 d10 k3, PS) | 0% |  | 
32 | AGGTAAAGGCACATTC (sugars k3 d10 k3, PS) |  | 19% | 
33 | AGGTAATCTGTATAGT (sugars k3 d10 k3, PS) |  | 62% | 
34 | AGTAACTGACACGCAC (sugars k3 d10 k3, PS) |  | 51% | 
35 | AGTACAGTCCACTCCA (sugars k3 d10 k3, PS) | 7% |  | 
36 | AGTATGAGAAACGGCC (sugars k2 d9 e3 k2, PS) | 16% |  | 
37 | AGTATGAGAAACGGCC (sugars kdddddddddkekeke, PS) | 4% |  | 
38 | AGTCAAGCCCCAAGCC (sugars k3 d10 k3, PS) |  | 13% | 
39 | AGTCAATCACTGGAGA (sugars k3 d10 k3, PS) | 16% and 22% | 60% | target mRNA inhibition (MM.1R, 0.0625 µM): 1% and -8%; target mRNA inhibition (MM.1R, 0.074 µM): 0%; target mRNA inhibition (MM.1R, 0.222 µM): -15%; target mRNA inhibition (MM.1R, 0.25 µM): 4% and 5%; target mRNA inhibition (MM.1R, 0.666 µM): -7%; target mRNA inhibition (MM.1R, 2 µM): 9%; target mRNA inhibition (MM.1R, 4 µM): 40% and 45%
40 | AGTCACCTGGAATCTT (sugars k3 d10 k3, PS) |  | 47% | 
41 | AGTGAAGTCGGGAGAT (sugars k3 d10 k3, PS) | 8% |  | 
42 | AGTGACTTGCATCCAT (sugars kkddddddddddkeke, PS) | 50% |  | 
43 | AGTGACTTGCATCCAT (sugars kkdddddddddkdkdk, PS) | 22% |  | 
44 | AGTGATAGGTATACTT (sugars k3 d10 k3, PS) |  | 39% | 
45 | AGTTGTAAATGAGTCG (sugars k2 d9 e3 k2, PS) | 66% |  | target mRNA inhibition (H929, 0.04 µM): 57% and 42%; target mRNA inhibition (KMS11, 0.2 µM): 86% and 92%; target mRNA inhibition (MM.1R, 0.074 µM): 10%; target mRNA inhibition (MM.1R, 0.222 µM): 25%; target mRNA inhibition (MM.1R, 0.666 µM): 55%; target mRNA inhibition (MM.1R, 2 µM): 77%
46 | AGTTGTAAATGAGTCG (sugars kddddddddddkekek, PS) | 44% |  | 
47 | AGTTGTAAATGAGTCG (sugars kkdddddddddekeke, PS) | 73% |  | target mRNA inhibition (MM.1R, 0.074 µM): 17%; target mRNA inhibition (MM.1R, 0.222 µM): 44%; target mRNA inhibition (MM.1R, 0.666 µM): 67%; target mRNA inhibition (MM.1R, 2 µM): 86%
48 | AGTTTGTGAAGCATCC (sugars k3 d10 k3, PS) |  | 69% | 

Row | Sequence | target mRNA inhibition (MM.1R, 1 µM) | target mRNA inhibition (SK-MEL-28, 4 µM) | further results
49 | ATAAACACCCCTTCTT (sugars k3 d10 k3, PS) |  | 30% | 
50 | ATAACACGGTGTTGAC (sugars k3 d10 k3, PS) | 21% |  | 
51 | ATAACCGGTAGAGTGA (sugars k3 d10 k3, PS) |  | 50% | 
52 | ATAATATAGTTGTCTG (sugars k3 d10 k3, PS) |  | 35% | 
53 | ATACACACCCTCGGGC (sugars k3 d10 k3, PS) | -10% |  | 
54 | ATAGAATTAGGTGCTT (sugars k3 d10 k3, PS) | 25% | 64% | target mRNA inhibition (MM.1R, 0.0625 µM): -5%; target mRNA inhibition (MM.1R, 0.074 µM): -1%; target mRNA inhibition (MM.1R, 0.222 µM): 33%; target mRNA inhibition (MM.1R, 0.25 µM): 6%; target mRNA inhibition (MM.1R, 0.666 µM): 11%; target mRNA inhibition (MM.1R, 2 µM): 8%; target mRNA inhibition (MM.1R, 4 µM): 56%
55 | ATAGAGCATCACTATT (sugars k3 d10 k3, PS) | 0% |  | 
56 | ATAGATCTGTGGTAAT (sugars k3 d10 k3, PS) |  | 38% | 
57 | ATAGCTGAGCTGATCA (sugars k3 d10 k3, PS) | 30% |  | 
58 | ATAGCTGTTTATTTCC (sugars k3 d10 k3, PS) |  | 62% | target mRNA inhibition (MM.1R, 0.074 µM): 7%; target mRNA inhibition (MM.1R, 0.222 µM): 12%; target mRNA inhibition (MM.1R, 0.666 µM): 24%; target mRNA inhibition (MM.1R, 2 µM): 50%; target mRNA inhibition (SK-MEL-28, 0.185 µM): 13%; target mRNA inhibition (SK-MEL-28, 5 µM): 75%; target mRNA inhibition (SK-MEL-28, 15 µM): 90%
59 | ATAGGTATACTTAAGC (sugars k3 d10 k3, PS) |  | 80% and 79% | 
60 | ATAGTTAAGTACTTGG (sugars k3 d10 k3, PS) |  | 48% | 
61 | ATATAGAATTAGGTGC (sugars k3 d10 k3, PS) |  | 16% | 
62 | ATATAGTTGTCTGGCT (sugars k3 d10 k3, PS) |  | 41% | 
63 | ATATATGACGACTTAA (sugars k3 d10 k3, PS) |  | 6% | 
64 | ATATCCTGTAGTATGA (sugars k3 d10 k3, PS) |  | 57% | 
65 | ATATGGCTAAACCTGG (sugars k3 d10 k3, PS) | 18% |  | 
66 | ATATTAGAGACTGTAT (sugars k3 d10 k3, PS) |  | 25% | 
67 | ATCACCGAACACACCA (sugars k3 d10 k3, PS) | -12% |  | 
68 | ATCAGAATGTTTCGAC (sugars k3 d10 k3, PS) |  | 46% | 
69 | ATCATCCGAAAAGACT (sugars k3 d10 k3, PS) | 4% |  | 
70 | ATCCCTTATTAGACTG (sugars k3 d10 k3, PS) | -7% |  | 
71 | ATCGAATCTGCCCAAA (sugars k3 d10 k3, PS) |  | 26% | 
72 | ATCTAAGGCAAGCTGA (sugars k3 d10 k3, PS) |  | 37% | 

Row | Sequence | target mRNA inhibition (MM.1R, 1 µM) | target mRNA inhibition (SK-MEL-28, 4 µM) | further results
73 | ATCTACCTCAGTTTGT (sugars k3 d10 k3, PS) |  | 42% | 
74 | ATCTGAGACTACACCT (sugars k3 d10 k3, PS) | -8% |  | 
75 | ATCTGGATGAGCTTAC (sugars k3 d10 k3, PS) |  | 38% | 
76 | ATGAAAGTGTGTGCAA (sugars k3 d10 k3, PS) |  | 64% | 
77 | ATGAACCCTAAGTTTA (sugars k3 d10 k3, PS) | -4% |  | 
78 | ATGAACGGAAGTTTAC (sugars k3 d10 k3, PS) |  | 54% | 
79 | ATGACATGCTTTGTCC (sugars k3 d10 k3, PS) |  | 46% | 
80 | ATGAGAAACGGCCTGG (sugars k3 d10 k3, PS) |  | 64% | 
81 | ATGAGAACTTTGATGT (sugars k3 d10 k3, PS) |  | 15% | 
82 | ATGAGGGACCAGAACT (sugars k3 d10 k3, PS) | 6% |  | 
83 | ATGCCATGGACAAGTT (sugars k3 d10 k3, PS) | 18% |  | 
84 | ATGCGAAGAATTTTAG (sugars k3 d10 k3, PS) |  | 21% | 
85 | ATGCGGAGGTTCCTTG (sugars k3 d10 k3, PS) | 47% and 52% |  | 
86 | ATGCTGAACCCCACAG (sugars k3 d10 k3, PS) | 16% |  | 
87 | ATGGAAATACGACAAC (sugars k3 d10 k3, PS) |  | 35% | 
88 | ATGGCAAAAGACCAAT (sugars k3 d10 k3, PS) | -5% |  | 
89 | ATGGCGCATAGGTCCT (sugars k3 d10 k3, PS) | -5% |  | 
90 | ATGGCTAAACCTGGCA (sugars k3 d10 k3, PS) | 22% |  | 
91 | ATGTAAAGTCTGCTGA (sugars k3 d10 k3, PS) | 20% |  | 
92 | ATGTAGTTGTGAACCT (sugars k3 d10 k3, PS) |  | 39% | 
93 | ATGTATACCAACGACA (sugars k3 d10 k3, PS) |  | 63% | 
94 | ATGTGATAGCTGAGCT (sugars kdddddddddkekeke, PS) | 15% |  | 
95 | ATGTGATAGCTGAGCT (sugars kkdddddddddekeke, PS) | 2% |  | 
